Experiments:
Type in all cases: biochemical
tyrosinase = test: Tyrosinase inhibition, tyrosinase inhibitor screening kit (Sigma Aldrich MAK 257 Kit)
Procedure: A study of tyrosinase inhibition is conducted (e.g., Sigma Aldrich MAK 257 Kit) to investigate the efficacy of an exemplary composition of the present invention (0.312% lactic acid; 0.156% mandelic acid; and 0.078% pyruvic acid) and individual short chain fatty acids at the same concentrations.
A study of tyrosinase inhibition is conducted (e.g., Sigma Aldrich MAK 257 Kit) to investigate the efficacy of an exemplary composition of the present invention (0.312% mandelic acid and 0.156% pyruvic acid) and individual short chain fatty acids at the same concentrations.
(§1) The anti-tyrosinase activity of an exemplary composition of the present invention was compared to the anti-tyrosinase activity of individual short chain fatty acids. Assays were performed using a tyrosinase inhibitor screening kit from Sigma Aldrich (MAK 257 Kit); and following the manufacturer's protocol. The results of these experiments are described in Table 1 (below).
as §1, with “4” for “1”
Peels were diluted 1000× in buffer to prepare 0.1% working stock. The working stock was serially diluted 2× to test the peels at five doses (0.1 wt. %, 0.05 wt. %, 0.025 wt. %, 0.0125 wt. % and 0.00625 wt. %). The pH of all test samples and dilutions was measured before and after tyrosinase assay to exclude any effect of acid on the enzyme activity. The assay was performed using a commercial kit following manufacturer's protocol (e.g., MAK 257 Kit from Sigma Aldrich). LMP peels containing various concentrations of pyruvic acid at pH 2.5 (“R1 Peels”); LMP peels which were identically formulated to the R1 Peels, but with pH buffered to 3.6 (“R2 Peels”); and LMP′ peels which were identically formulated to the R2 Peels, other than the replacement of pyruvic acid with sodium pyruvate (“R3 Peels”), were all evaluated.

collagenase = test: Collagenase inhibition, collagenase inhibitor screening kit (Sigma Aldrich MAK 293 Kit)
Procedure: (§2) A study of collagenase inhibition is conducted (e.g., Sigma Aldrich MAK 293 Kit) to investigate the was conducted to investigate the efficacy of an exemplary composition of the present invention (1.25% lactic acid; 0.625% mandelic acid; and 0.312% pyruvic acid) and individual short chain fatty acids, at the same concentrations.
as §2, with “mandelic acid and” for “lactic acid;”, “0.625%” for “0.625% mandelic acid; and 0.312%”
as §1, with “anti-collagenase” for “anti-tyrosinase”, “collagenase” for “tyrosinase”, “293” for “257”, “2” for “1”
as §1, with “anti-collagenase” for “anti-tyrosinase”, “collagenase” for “tyrosinase”, “293” for “257”, “5” for “1”

elastase = target: T1, elastase (Homo sapiens, UniProt P08246); test: Elastase inhibition, elastase inhibitor screening kit (Sigma Aldrich MAK 213 Kit); settings: Table 3, Example 7
T1 construct: purchased Sigma Aldrich MAK 213 Kit
T1 sequence (P08246 30-267): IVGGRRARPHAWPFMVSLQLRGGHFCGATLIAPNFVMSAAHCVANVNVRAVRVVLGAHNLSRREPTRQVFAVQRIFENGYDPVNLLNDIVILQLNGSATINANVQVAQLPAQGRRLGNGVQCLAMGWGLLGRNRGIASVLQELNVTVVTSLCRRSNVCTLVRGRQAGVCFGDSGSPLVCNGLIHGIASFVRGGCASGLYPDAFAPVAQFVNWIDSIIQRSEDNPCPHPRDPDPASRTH
Procedure: as §1, with “anti-elastase” for “anti-tyrosinase”, “an elastase” for “a tyrosinase”, “213” for “257”, “3” for “1”

For `CC(=O)C(=O)O` [Pyruvic Acid (P), pyruvic acid], the “% Tyrosinase Inhibition” value (tyrosinase; Table 1, Example 5, 0.078 wt. %) was 29.29%, the “% Tyrosinase Inhibition” value (tyrosinase; Table A, Example 1, 0.078 wt. %) was 0.37% and the “% Tyrosinase Inhibition” value (tyrosinase; Table C, Example 3, 0.156 wt. %) was 26.62%. For the same compound, the “% Collagenase Inhibition” value (collagenase; Table 2, Example 6, 0.312 wt. %) was 8.79%, the “% Collagenase Inhibition” value (collagenase; Table B, Example 2, 0.312 wt. %) was 6.70% and the “% Collagenase Inhibition” value (collagenase; Table D, Example 4, 0.625 wt. %) was 9.58%. For the same compound, the “% Elastase Inhibition” value (elastase; 0.156 wt. %) was 20.21%.
With `O=C(O)C(O)c1ccccc1` (centres unmarked) [Mandelic Acid (M), mandelic acid] the “% Tyrosinase Inhibition” value (tyrosinase; Table 4, Example 8, 0.156 wt. %) was 0.06%, the “% Tyrosinase Inhibition” value (tyrosinase; Table A, Example 1, 0.156 wt. %) was 0.06% and the “% Tyrosinase Inhibition” value (tyrosinase; Table C, Example 3, 0.312 wt. %) was 1.17%. For the same compound, the “% Collagenase Inhibition” value (collagenase; Table 5, Example 9, 0.625 wt. %) was 8.57%, the “% Collagenase Inhibition” value (collagenase; Table B, Example 2, 0.625 wt. %) was 8.57% and the “% Collagenase Inhibition” value (collagenase; Table D, Example 4, 1.25 wt. %) was 11.26%.
`CC(O)C(=O)O` (centres unmarked) [Lactic Acid (L), lactic acid] was tested, and the “% Tyrosinase Inhibition” value (tyrosinase; Table 1, Example 5, 0.312 wt. %) was 52.72%, the “% Tyrosinase Inhibition” value (tyrosinase; Table 4, Example 8, 0.312 wt. %) was 1.23% and the “% Tyrosinase Inhibition” value (tyrosinase; Table A, Example 1, 0.312 wt. %) was 2.23%. For the same compound, the “% Collagenase Inhibition” value (collagenase; Table 2, Example 6, 1.25 wt. %) was 40.32%, the “% Collagenase Inhibition” value (collagenase; Table 5, Example 9, 1.25 wt. %) was 12.71% and the “% Collagenase Inhibition” value (collagenase; Table B, Example 2, 1.25 wt. %) was 12.71%. The “% Elastase Inhibition” value (elastase; 0.625 wt. %) was 44.89%.

Reference: patent US20210275418A1, “Personal Care Compositions” (Colgate-Palmolive Company, priority 2020, published 2021)
